Results: patent publication US10278965B2, “Method of detecting cancer stem cell, method of screening cancer stem cell, and method of inhibiting cancer stem cell” (CANON KABUSHIKI KAISHA, priority 2012, dated 2019)

Legend:
[1] = Measurement of fluorescent property of compound; format: physicochemical; settings: 5 μM DMSO solution
Experimental: The excitation wavelength and fluorescence wavelength of the compound were measured by a FL4500 spectrofluorometric measuring machine manufactured by Hitachi High-Technologies Corporation.

[2] = system: Human chronic myelocytic leukemia cells, K562, ALDH (+) fraction (cancer stem cells); test: Cancer stem-cell selective inhibitory action against chronic myelocytic leukemia cells, ALDH (+) fraction; format: cell-based; settings: 24 hours
Experimental: Human chronic myelocytic leukemia cells, K562, were pre-cultured in RPMI1640 medium containing 10% FBS at 37° C. in a 5% CO2 ambient. Then, a fraction containing 80% or more of cancer stem cells was extracted by use of a cancer stem cell marker, ALDEFLUOR reagent (manufactured by VERITAS Corporation) and FACSAria flow cytometry (manufactured by Nippon Becton, Dickinson and Company). […] The cultured cells were analyzed for viable cell count according to CellTiter-Glo Luminescent Cell Viability Assay (manufactured by Promega KK.). […] Note that hereinafter, an ALDEFLUOR reagent positive fraction (deemed as cancer stem cells) is represented by ALDH (+), whereas an ALDEFLUOR reagent negative fraction (not deemed as cancer stem cells) is represented by ALDH (−), in some cases.
Further, the growth suppressive effect of cancer stem cells was evaluated based on the following criteria. Note that the growth rate in Examples is a value obtained by dividing viable cell count after culture by the number of cells at the initiation time of culture.

[3] = system: Prostatic cancer cells, PC-3; test: Cancer cell inhibitory (growth suppressive) action against prostatic cancer cells, CellTiter-Glo viable cell count; format: cell-based; settings: PC-3, 10 μg/mL, 24 hours
Experimental: Prostatic cancer cells, PC-3, were pre-cultured in RPMI1640 medium containing 10% FBS at 37° C. in a 5% CO2 ambient. Thereafter, 4,000 cells were seeded per well of a 96-well plate and further cultured for 24 hours. Subsequently, Compound (1) was added to the medium so as to obtain a final concentration of 10 μg/mL and cultured at 37° C. for 24 hours in a 5% CO2 ambient. The cultured cells were analyzed for viable cell count according to Cell Titer-Glo Luminescent Cell Viability Assay (manufactured by Promega KK.).
Viable cell count was analyzed in the same manner as in Experimental Example 24 except that Compound (1) of Experimental Example 24 was changed to each compound shown in Table 2.
Viable cell count was analyzed in the same manner as in Experimental Example 24 except that Compound (1) of Experimental Example 24 was changed to each of Comparative compounds 1 to 4, to obtain growth rates.
Note that the growth rate used in Examples refers to the rate (expressed by percentage) of viable cell count after culture relative to the number of cells at the initiation of cell culture. Evaluation criteria are the same as in the above experiments.

[4] = system: Human pancreas cancer cells, KLM-1; test: Cancer cell inhibitory (growth suppressive) action against pancreatic cancer cells, CellTiter-Glo viable cell count; settings: KLM-1, 10 μg/mL, 24 hours
Experimental: Human pancreas cancer cells, KLM-1, were pre-cultured in RPMI1640 medium containing 10% FBS at 37° C. in a 5% CO2 ambient. Thereafter, 4,000 cells were seeded per well of a 96-well plate and further cultured for 24 hours. […] The cultured cells were analyzed for viable cell count according to CellTiter-Glo Luminescent Cell Viability Assay (manufactured by Promega KK.).
Evaluation of cancer cell inhibition against the pancreatic cancer cells (KLM-1) (growth suppression) was made based on the following criteria. Note that the growth rate used in Examples refers to the rate (expressed by percentage) of viable cell count after culture relative to the number of cells at the initiation of cell culture.

Row | SMILES | Excitation wavelength λex [1] [nm] | Fluorescence wavelength λem [1] [nm] | ALDH(+) Superiority evaluation ([2]; K562, 1 μg/ml) | ALDH(+)/ALDH(−) ([2]; K562, 1 μg/ml) | ALDH(+) Superiority evaluation ([2]; K562, 10 μg/ml) | ALDH(+)/ALDH(−) ([2]; K562, 10 μg/ml) | Cancer cell growth rate (%) [3] [%] | Evaluation (cancer cell growth rate) [3] | Cancer cell growth rate (%) [4] [%] | Evaluation (cancer cell growth rate) [4]
1 | CCN1\C(=C/C=C/C=C/c2oc3ccccc3[n+]2CC)Oc2ccccc21 [Compound 28] | 589 | 614 | B (The value of the growth rate of ALDH (+)/the growth rate of ALDH (−) is 0.8 or more and less than 0.95) | 0.83 | A (The value of the growth rate of ALDH (+)/the growth rate of ALDH (−) is less than 0.8) | 0.69 |  |  |  | 
2 | CCCCN1/C(=C/C=C2\CCCC(/C=C/C3=[N+](CCCC)c4ccccc4C3(C)C)=C2c2ccccc2)C(C)(C)c2ccccc21 [Compound 54] | 774 | 800 |  |  | A (The value of the growth rate of ALDH (+)/the growth rate of ALDH (−) is less than 0.8) | 0.50 |  |  |  | 
3 | O=C(O)CN1/C(=C\C2=C(Cl)C(=C/c3sc4ccccc4[n+]3CC(=O)O)/CCC2)Sc2ccccc21 [Comparative compound 3, reference compound] |  |  | C (The value of the growth rate of ALDH (+)/the growth rate of ALDH (−) is 0.95 or more) | 0.79 |  |  | 101 | C (Cancer cell growth rate is 50% or more) | 93.0 | C (Cancer cell growth rate is 50% or more)
4 | CCN1/C(=C\C(C)=C\c2sc3c4ccccc4ccc3[n+]2CC)Sc2c1ccc1ccccc21 [Compound 11] | 354 | 469 |  |  |  |  | 4.3 | A (Cancer cell growth rate is less than 20%) | 5.0 | A (Cancer cell growth rate is less than 20%)
5 | CCC(=C\c1sc2ccc3ccccc3c2[n+]1CC)/C=C1/Sc2ccc3ccccc3c2N1CC [Compound 10] | 586 | 615 |  |  |  |  |  |  | 13.5 | A (Cancer cell growth rate is less than 20%)
6 | CCCCCCCN1/C(=C\C=C\c2oc3ccccc3[n+]2CCCCCCC)Oc2ccccc21 [Compound 18] | 492 | 510 |  |  | A (The value of the growth rate of ALDH (+)/the growth rate of ALDH (−) is less than 0.8) | 0.29 |  |  |  | 
7 | CCCCN1/C(=C/C=C2\CCCC(/C=C/C3=[N+](CCCC)c4ccccc4C3(C)C)=C2Cl)C(C)(C)c2ccccc21 [Compound 43] | 797 | 816 |  |  |  |  | 12.3 | A (Cancer cell growth rate is less than 20%) | 35.6 | B (Cancer cell growth rate is 20% or more and less than 50%)
8 | CN1/C(=C/C=C2\CCCC(/C=C/C3=[N+](C)c4ccc5ccccc5c4C3(C)C)=C2Cl)C(C)(C)c2c1ccc1ccccc21 [Compound 49] | 830 | 831 |  |  |  |  | 5.3 | A (Cancer cell growth rate is less than 20%) | 12.0 | A (Cancer cell growth rate is less than 20%)
9 | CCC(/C=C1\Oc2ccccc2N1CC)=C\c1oc2ccccc2[n+]1CC [Compound 56] |  |  |  |  | A (The value of the growth rate of ALDH (+)/the growth rate of ALDH (−) is less than 0.8) | 0.65 |  |  |  | 
10 | CCCC[N+]1=C(/C=C/C2=C(Cl)C(=C/C=C3/N(C)c4ccccc4C3(C)C)/CCC2)C(C)(C)c2c1ccc1ccccc21 [Compound 51] |  |  |  |  | A (The value of the growth rate of ALDH (+)/the growth rate of ALDH (−) is less than 0.8) | 0.27 |  |  |  | 
11 | CCOC(=O)C1(C(=O)OCC)CC(/C=C/C2=[N+](CC)c3ccccc3C2(C)C)=CC(=C/C=C2/N(CC)c3ccccc3C2(C)C)/C1 [Compound 37] | 650 | 770 |  |  |  |  |  |  | 4.8 | A (Cancer cell growth rate is less than 20%)
12 | CCN1/C(=C/C=C/C=C/C=C/C2=[N+](CC)c3ccccc3C2(C)C)C(C)(C)c2ccccc21 [Compound 32] |  |  |  |  | A (The value of the growth rate of ALDH (+)/the growth rate of ALDH (−) is less than 0.8) | 0.32 |  |  |  | 
13 | CCN1C=C/C(=C/C=C/c2ccc3ccccc3[n+]2CC)c2ccccc21.[I-] [Compound 45] | 665 | 681 |  |  |  |  |  |  | 28.5 | B (Cancer cell growth rate is 20% or more and less than 50%)
14 | CN1/C(=C\C=C\C2=[N+](C)c3ccc4ccccc4c3C2(C)C)C(C)(C)c2c1ccc1ccccc21 [Compound 20] |  |  |  |  |  |  | 13.1 | A (Cancer cell growth rate is less than 20%) | 1.2 | A (Cancer cell growth rate is less than 20%)
15 | CCC(/C=C1\Sc2ccccc2N1CC)=C\c1sc2ccccc2[n+]1CC.[I-] [Compound 4] | 563 | 569 |  |  |  |  | 19.5 | A (Cancer cell growth rate is less than 20%) | 3.1 | A (Cancer cell growth rate is less than 20%)
16 | CN1/C(=C/C=C2\CCCC(/C=C/C3=[N+](C)c4ccccc4C3(C)C)=C2Sc2ccccc2)C(C)(C)c2ccccc21 [Compound 59] | 804 | 520 | A (The value of the growth rate of ALDH (+)/the growth rate of ALDH (−) is less than 0.8) | 0.67 | A (The value of the growth rate of ALDH (+)/the growth rate of ALDH (−) is less than 0.8) | 0.22 |  |  |  | 
17 | CC(C)CCN1/C(=C/C=C/C=C/C2=[N+](CCC(C)C)c3ccc4ccccc4c3C2(C)C)C(C)(C)c2c1ccc1ccccc21 [Compound 55] | 688 | 715 |  |  | A (The value of the growth rate of ALDH (+)/the growth rate of ALDH (−) is less than 0.8) | 0.33 |  |  |  | 
18 | CCC(=C\c1sc2c3ccccc3ccc2[n+]1CC)/C=C1/Sc2c(ccc3ccccc23)N1CC.[I-] [Compound 7] | 344 | 381 |  |  |  |  | 15.3 | A (Cancer cell growth rate is less than 20%) | 13.0 | A (Cancer cell growth rate is less than 20%)
19 | CCN1C=C/C(=C/C=C/c2cc[n+](CC)c3ccccc23)c2ccccc21 [Compound 46] | 679 | 715 |  |  |  |  | 17.7 | A (Cancer cell growth rate is less than 20%) | 16.7 | A (Cancer cell growth rate is less than 20%)
20 | CCC(=C\c1oc2ccc(-c3ccccc3)cc2[n+]1CC)/C=C1/Oc2ccc(-c3ccccc3)cc2N1CC [Compound 57] |  |  |  |  | B (The value of the growth rate of ALDH (+)/the growth rate of ALDH (−) is 0.8 or more and less than 0.95) | 0.81 |  |  |  | 
21 | CN1/C(=C/C=C/C=C/C2=[N+](C)c3ccc4ccccc4c3C2(C)C)C(C)(C)c2cc(Cl)ccc21 [Compound 60] | 670 | 696 |  |  | A (The value of the growth rate of ALDH (+)/the growth rate of ALDH (−) is less than 0.8) | 0.34 |  |  |  | 
22 | CCN1/C(=C/C=C/C=C/C=C/C2=[N+](CC)c3ccccc3C23CCCCC3)C2(CCCCC2)c2ccccc21 [Compound 31] |  |  |  |  |  |  |  |  | 30.5 | B (Cancer cell growth rate is 20% or more and less than 50%)
23 | CCN1/C(=C/C=C2\CCCC(/C=C/C3=[N+](CC)c4ccc(OC)cc4C3(C)C)=C2Cl)C(C)(C)c2cc(OC)ccc21 [Compound 40] | 819 | 825 |  |  |  |  |  |  | 14.1 | A (Cancer cell growth rate is less than 20%)
